Experimental findings from ChEMBL document CHEMBL1201862, “PubChem BioAssay data set” (2004) are described below.

For one test, the target named is Cytochrome P450 2C19 (Homo sapiens, UniProt P33261). Description: Cytochrome panel assay with activity outcomes. Panel member name: p450-cyp2c19 Compounds with AC50 equal or less than 10 uM are considered active. The class given is functional. The settings on record: read-out: AC50.
The next test addresses Cytochrome P450 3A4 (Homo sapiens, UniProt P08684).
The target of test [1] is T1, Polyadenylate-binding protein 1 (Homo sapiens, UniProt P11940). Description: MLLE domain peptide-binding blockers, IC50 – biochemical, fluorescence polarization, FITC-PAM2 peptide, dose response (AID 602259). The class given is functional. The settings on record: read-out: IC50_Mean.
T1 sequence (P11940 whole entry, the tested form may be a part): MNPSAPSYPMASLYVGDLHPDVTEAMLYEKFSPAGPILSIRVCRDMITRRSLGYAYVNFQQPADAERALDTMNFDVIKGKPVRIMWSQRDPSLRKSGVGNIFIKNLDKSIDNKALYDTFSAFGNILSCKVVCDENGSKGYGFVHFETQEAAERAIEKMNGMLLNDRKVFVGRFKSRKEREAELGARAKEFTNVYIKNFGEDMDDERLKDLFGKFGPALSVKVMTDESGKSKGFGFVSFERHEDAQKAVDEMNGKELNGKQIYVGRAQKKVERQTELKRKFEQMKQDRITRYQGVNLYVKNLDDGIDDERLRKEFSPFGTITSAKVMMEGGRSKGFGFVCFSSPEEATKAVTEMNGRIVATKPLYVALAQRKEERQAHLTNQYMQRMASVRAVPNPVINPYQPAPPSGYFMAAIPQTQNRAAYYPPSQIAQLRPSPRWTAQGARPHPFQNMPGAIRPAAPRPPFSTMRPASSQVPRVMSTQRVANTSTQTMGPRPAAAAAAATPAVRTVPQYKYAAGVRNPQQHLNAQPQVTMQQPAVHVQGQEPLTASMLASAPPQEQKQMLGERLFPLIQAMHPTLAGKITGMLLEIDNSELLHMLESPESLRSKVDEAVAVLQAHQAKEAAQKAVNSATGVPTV
Test [2] addresses T1, Polyadenylate-binding protein 1. Description: MLLE binding blockers, Cy5 peptide tracer – biochemical, fluorescence polarization, Cy5-PAM2 peptide, secondary, miRNA deadenylation inhibitor project, dose response (AID 602260). The class given is functional. The settings on record: read-out: IC50_Mean.
The next test deals with T2, Cytochrome P450 1A2 (Homo sapiens, UniProt P05177).
T2 sequence (P05177 whole entry): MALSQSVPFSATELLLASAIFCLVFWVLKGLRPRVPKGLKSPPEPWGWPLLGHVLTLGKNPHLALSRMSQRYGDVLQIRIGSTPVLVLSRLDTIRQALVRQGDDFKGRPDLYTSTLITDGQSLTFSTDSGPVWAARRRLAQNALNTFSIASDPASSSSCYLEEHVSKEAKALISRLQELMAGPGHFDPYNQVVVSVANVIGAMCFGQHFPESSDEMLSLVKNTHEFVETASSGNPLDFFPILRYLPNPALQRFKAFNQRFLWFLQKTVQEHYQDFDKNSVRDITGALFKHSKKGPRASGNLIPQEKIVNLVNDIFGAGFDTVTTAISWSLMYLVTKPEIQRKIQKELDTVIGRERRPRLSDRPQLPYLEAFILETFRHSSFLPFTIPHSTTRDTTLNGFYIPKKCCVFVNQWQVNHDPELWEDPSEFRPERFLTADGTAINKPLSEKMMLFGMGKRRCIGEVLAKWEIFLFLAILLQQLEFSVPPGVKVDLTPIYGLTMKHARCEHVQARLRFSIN

The subject of another test is Streptococcus. Description: GAS UMAA2166 growth inhibition – luminescence, BacTiterGlo, counter-screen for streptokinase expression inhibitor project, dose response (AID 1915).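 Further: potency for reduction of bacterial viability or growth.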 The class given is functional, organism-based.
Test [3] deals with Streptococcus sp. 'group A'. Description: Streptococcus pyogenes SK(-)GAS viability under kanamycin – luminescence, BacTiterGlo, confirmation, counter-screen for streptokinase expression inhibitor project, dose response (AID 1900). The class given is functional, organism-based.
In the next test the target is T3, Streptokinase A (Streptococcus pyogenes serotype M1, UniProt P10520).
T3 sequence (P10520 whole entry): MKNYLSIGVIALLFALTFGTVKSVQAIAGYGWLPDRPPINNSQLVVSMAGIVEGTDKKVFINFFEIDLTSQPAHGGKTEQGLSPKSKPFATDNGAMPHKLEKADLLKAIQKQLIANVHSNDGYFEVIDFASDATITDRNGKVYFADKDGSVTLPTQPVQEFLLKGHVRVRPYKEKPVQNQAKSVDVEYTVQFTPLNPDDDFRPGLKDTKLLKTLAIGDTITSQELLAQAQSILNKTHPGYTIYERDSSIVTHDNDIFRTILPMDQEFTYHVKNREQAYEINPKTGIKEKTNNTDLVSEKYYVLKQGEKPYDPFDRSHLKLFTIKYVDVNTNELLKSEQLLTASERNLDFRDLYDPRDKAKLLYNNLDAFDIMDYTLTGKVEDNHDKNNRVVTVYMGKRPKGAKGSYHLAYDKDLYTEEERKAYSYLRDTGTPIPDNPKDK
Description: viability-normalized secreted streptokinase activity reduction – plasminogen activation absorbance, OD405, dose response (AID 1914).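 Further: secreted streptokinase activity via plasminogen activation per viability signal from cell pellet.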 The class given is functional, Streptococcus pyogenes M1 GAS.

The subject of a further test is INS1. Briefly: INS-1E survival protection against cytokine death – cell-based, luminescence, retest, dose response (AID 449756).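 Further: cell death triggered by IL-1 beta plus TNF-alpha plus IFN-gamma mixture; protective hits raise ATP signal compared with cytokine alone wells.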 The settings on record: Rattus norvegicus. The class given is functional.
Test [4] deals with T4, Rac GTPase-activating protein 1 (Homo sapiens, UniProt Q9H0H5).
T4 sequence (Q9H0H5 whole entry): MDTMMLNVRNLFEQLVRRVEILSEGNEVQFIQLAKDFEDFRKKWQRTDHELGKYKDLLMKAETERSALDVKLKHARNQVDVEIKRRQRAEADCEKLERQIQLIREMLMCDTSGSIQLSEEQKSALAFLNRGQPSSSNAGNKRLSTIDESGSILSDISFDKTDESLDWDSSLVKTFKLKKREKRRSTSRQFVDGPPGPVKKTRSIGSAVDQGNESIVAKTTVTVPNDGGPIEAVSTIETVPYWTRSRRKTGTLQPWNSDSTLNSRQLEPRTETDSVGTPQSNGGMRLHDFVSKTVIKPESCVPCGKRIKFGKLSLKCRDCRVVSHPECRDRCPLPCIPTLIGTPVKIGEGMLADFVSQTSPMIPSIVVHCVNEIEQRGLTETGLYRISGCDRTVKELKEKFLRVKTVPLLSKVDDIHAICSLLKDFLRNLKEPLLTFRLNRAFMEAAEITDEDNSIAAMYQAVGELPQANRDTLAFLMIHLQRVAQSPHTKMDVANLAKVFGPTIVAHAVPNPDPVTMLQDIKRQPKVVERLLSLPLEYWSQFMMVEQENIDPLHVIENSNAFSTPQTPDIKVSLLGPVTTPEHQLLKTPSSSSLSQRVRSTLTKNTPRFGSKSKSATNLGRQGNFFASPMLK
Briefly: blockers of MgcRacGAP-driven Rac1 GTP hydrolysis – biochemical, ADP Hunter fluorescence, primary and confirmatory, confirmation (AID 624330). The class given is functional.

Test [5] can be described thus: Luminescence Cell-Based Dose Response HTS to Identify Activators of Luciferase Translation or Activity in H4 […] Cells. [Related pubchem assays: 1829 (Project Summary), 1814 (Primary HTS)]. The class given is functional.
The test system of another test is H4. Briefly: Luminescence Cell-Based Dose Response HTS to Identify Activators of 5'UTR Stem-Loop Driven Prion Protein mRNA Translation in H4 Neuroglioblastoma Cells. [Related pubchem assays: 1829 (Project Summary), 1814 (Primary HTS)]. The class given is functional. The settings on record: Homo sapiens.
Test [6] is described as follows: Luminescence Cell-Based Dose Confirmation HTS to Identify Activators of 5'UTR Stem-Loop Driven Alpha-Synuclein mRNA Translation in H4 Neuroglioblastoma Cells. [Related pubchem assays: 1829 (Project Summary), 1814 (Primary HTS)]. The class given is functional.
Test [7] in a line: Luminescence Cell-Based Dose Retest to Confirm Inhibitors of Cancer Stem Cells. [Related pubchem assays (depositor defined):AID2717, AID2721]. The class given is functional. The settings on record: Homo sapiens.

Activity calls are given as the source filed them. A value given as a limit tells only on which side of the number the result lay.

Sequence of Cytochrome P450 2C19 (P33261 whole entry): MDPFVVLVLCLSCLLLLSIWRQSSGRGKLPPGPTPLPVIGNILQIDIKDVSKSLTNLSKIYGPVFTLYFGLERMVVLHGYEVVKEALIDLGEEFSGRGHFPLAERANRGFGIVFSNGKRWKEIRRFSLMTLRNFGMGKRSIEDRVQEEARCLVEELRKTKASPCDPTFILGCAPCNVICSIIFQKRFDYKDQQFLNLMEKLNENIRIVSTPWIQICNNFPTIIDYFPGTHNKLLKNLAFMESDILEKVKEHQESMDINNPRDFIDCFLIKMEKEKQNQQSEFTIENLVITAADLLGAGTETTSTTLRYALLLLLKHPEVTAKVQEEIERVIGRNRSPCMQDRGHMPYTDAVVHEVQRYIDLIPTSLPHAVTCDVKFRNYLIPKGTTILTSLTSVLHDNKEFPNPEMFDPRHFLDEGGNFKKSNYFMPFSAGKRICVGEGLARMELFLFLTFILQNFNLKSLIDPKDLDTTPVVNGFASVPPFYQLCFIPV
Sequence of Cytochrome P450 3A4 (P08684 whole entry, the tested form may be a part): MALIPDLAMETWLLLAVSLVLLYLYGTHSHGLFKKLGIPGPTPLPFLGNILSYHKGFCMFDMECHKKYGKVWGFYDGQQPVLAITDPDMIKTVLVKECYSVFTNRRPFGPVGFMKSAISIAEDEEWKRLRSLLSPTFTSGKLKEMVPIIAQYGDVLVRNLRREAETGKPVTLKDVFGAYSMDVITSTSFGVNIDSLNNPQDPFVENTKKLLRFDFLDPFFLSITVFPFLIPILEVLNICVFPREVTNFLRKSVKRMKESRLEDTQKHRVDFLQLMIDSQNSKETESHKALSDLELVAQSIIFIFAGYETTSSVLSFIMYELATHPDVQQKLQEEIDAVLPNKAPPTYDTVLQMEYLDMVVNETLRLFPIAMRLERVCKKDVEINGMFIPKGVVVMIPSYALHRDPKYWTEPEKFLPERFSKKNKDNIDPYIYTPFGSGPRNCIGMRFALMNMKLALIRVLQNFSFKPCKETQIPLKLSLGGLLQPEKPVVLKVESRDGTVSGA

With `O=C(CCNC(=O)c1ccccc1)OCN1C(=O)c2ccccc2C1=O`, the AC50 at Cytochrome P450 2C19 was 39.8 µM (inconclusive); at Cytochrome P450 3A4 it was 15.8 µM (inconclusive).
In the case of `COc1ccccc1NC(=O)Cc1csc(N=C(S)Nc2ccccc2)n1`, the IC50 in [1] and in [2] was > 66 µM (inactive) each time.
As for `COc1ccc(COC(=O)N/N=C2/C[C@@H](O)[C@@H](O)[C@@H]3[C@H]4C(=O)N(c5ccc(F)cc5F)C(=O)[C@@H]4CC[C@@H]23)cc1`, the AC50 on Cytochrome P450 3A4 is 3.16 µM (inconclusive).
On the same count and under the same terms, the figure for `CCc1c(C(=O)OC)ncc2[nH]c3cc(OC)c(OC)cc3c12` is 15.8 µM (inconclusive).
Consider `Cc1ccc(-c2ccc(/C=N/NC(=S)Nc3ccccc3)o2)cc1[N+](=O)[O-]`, for which the IC50 in test [1] and in test [2] was > 66 µM (inactive) throughout. The AC50 on Cytochrome P450 1A2 is 3.55 µM (inconclusive).
For the compound `C/C(=N\NC(=S)Nc1cccc(C)c1)c1cc2ccccc2o1`, the IC50 in test [1] and in test [2] was > 66 µM (inactive) in each case. The values for the EC50 (with Streptococcus; in test [3]; on Streptokinase A) were > 150 µM (not active), 3.44 µM (active) and > 150 µM (not active), respectively.
Turning to `Cc1ccc(C(C)C)c(OCC(O)CN2CCc3ccccc3C2)c1` (stereo not given), the AC50 in the test on INS1 was 7.17 µM (active).
With `CN(C)c1ccc(NC(=O)COC(=O)c2ccc3c(c2)OCO3)cc1`, in test [4], the IC50 is 63.3 µM (active).
On the same count and under the same terms, with `Cn1c(=O)[nH]c(=O)c2c1nc(S)n2Cc1ccccc1` the figure was 26.9 µM (active).
As for `N#C/C(=C\c1ccc(O)c(O)c1)C(=O)OCCc1cccs1`, the AC50 at Cytochrome P450 3A4 is 20 µM (inconclusive).
For `Cc1cc(C)nc(SCNC(=O)c2ccccc2)n1`, the IC50 in test [1] and in [2] was > 66 µM (inactive) each time.
As to `COC(=O)c1ccc2ccn(CC(=O)NC3CCCCC3)c2c1`, on Cytochrome P450 3A4, the AC50 is 4.47 µM (inconclusive).
`Cc1ccc(NC(S)=Nc2ccc(Br)cc2)cc1`: the AC50 on Cytochrome P450 3A4 is 14.1 µM (inconclusive).
For the compound `O=C(CCN1CCC2CCC(C2)C1)c1ccccc1` (stereo not given), the IC50 in test [1] and in [2] was > 66 µM (inactive) in each case.
As to `CCOc1cc(NC(=O)c2ccc(OC)cc2)c(OCC)cc1N=C(S)Nc1ccccc1`, the concentration at half-maximal activity (AC50) at Cytochrome P450 2C19 was 2.51 µM (inconclusive); on Cytochrome P450 1A2 it was 7.08 µM (inconclusive); on Cytochrome P450 3A4, 14.1 µM (inconclusive).
As for `C/C(=N\NC(=O)CSc1[nH]c(C)nc1[N+](=O)[O-])c1ccc(F)cc1`, the EC50 with Streptococcus is > 150 µM (not active); in test [3], > 150 µM (not active); in [5], 14.3 µM (active); at Streptokinase A, > 150 µM (not active); in the test with H4, 97.5 µM (active); in test [6] it was 15 µM (active).
As to `CCOCCCN=C(S)N1CCN(Cc2ccc3c(c2)OCO3)CC1`, the IC50 in test [4] is 152 µM (active).
`COc1ccc2cc(C(c3nnnn3C3CCCC3)N3CCc4ccccc4C3)c(O)nc2c1` (stereo not given): the IC50 in [1] and in test [2] was > 66 µM (inactive) in each case.
In the case of `Cc1ccc2cc(C=C(C#N)C#N)c(Cl)nc2c1`, the values for the IC50 in test [1] and in test [2] were 28 µM (inactive) and 44.8 µM (inactive), respectively.
In the case of `COc1ccc(-n2c(=O)c(-c3cccs3)nc3cnc(N4CCN(C)CC4)nc32)cc1`, the AC50 on Cytochrome P450 1A2 was 2.51 µM (inconclusive); at Cytochrome P450 3A4 it was 25.1 µM (inconclusive).
As for `O=C(O)CCCC(=O)Nc1ccc(C(=O)NCc2cccnc2)cc1`, the AC50 in the test with INS1 was 2.39 µM (active).
On the same count and under the same terms, the figure for `Cc1nnc(N/N=C/c2cc([N+](=O)[O-])c(N3CCC(C)CC3)cc2N2CCC(C)CC2)n1N` is 2.92 µM (active).
With `Cc1cnc(CNc2cc(-c3cccnc3)ncn2)cn1`, the AC50 on Cytochrome P450 1A2 and on Cytochrome P450 3A4 was 15.8 µM (inconclusive) each time.
`CCNc1ncc2nc(C)c(=O)n(Cc3ccc(F)cc3)c2n1`: the AC50 on Cytochrome P450 2C19 is 6.31 µM (inconclusive); on Cytochrome P450 3A4 it was 7.94 µM (inconclusive).
For the compound `O=C(NC1CCCC1)c1cc(COc2ccc3ncccc3c2)on1`, the AC50 in the test on INS1 was 3.29 µM (active).
In the case of `Nc1cc(Br)c(N)c(Br)c1`, in test [4], the IC50 was 13.5 µM (active).
For `O=c1c(-c2cccc(F)c2)nc2cncnc2n1Cc1ccccc1Cl`, the AC50 on Cytochrome P450 3A4 is 15.8 µM (inconclusive).
Take `O=c1c(-c2ccc(F)cc2)nc2cnc(Nc3ccccc3)nc2n1C[C@H]1CCCO1`: the AC50 on Cytochrome P450 1A2 is 2 µM (inconclusive); at Cytochrome P450 3A4 it was 12.6 µM (inconclusive).
On to `Cc1cc(Cl)ccc1N=C(S)NC(C)(C)C`, for which the IC50 in [1] and in test [2] was > 66 µM (inactive) in each case.
In the case of `COc1ccc(CCNC(=O)c2sc(=S)n(C)c2N)cc1`, the IC50 in test [1] and in test [2] was > 66 µM (inactive) throughout.
Turning to `CC(C)[C@H](N[C@@H](C)c1ccccc1)c1c(O)ccc2ccccc12`, the IC50 in test [4] is 16.8 µM (active).
In the case of `COC(=O)c1cc(/C=C/c2ccccc2)[nH]n1`, the EC50 was 6.84 µM (active) in [5], 18.1 µM (active) in the test with H4 and 25.4 µM (active) in test [6].
Take `COc1cc(CN2CCC(C(=O)N3CCCC(C)C3)CC2)cc(Br)c1O` (stereo not given): the IC50 in test [4] is 191 µM (active).
`CN(C(=O)CCN1C(=O)/C(=C/c2ccccc2F)SC1=S)C1CCS(=O)(=O)C1` (stereo not given): the IC50 in [1] and in test [2] was > 66 µM (inactive) in each case.
As to `Cc1cccc(NC2=C/C(=N/S(=O)(=O)c3cccs3)c3ccccc3C2=O)c1`, the AC50 was 0.835 µM (active) in test [7] and 0.803 µM (active) with INS1.
For the compound `O=C1C(Cl)=C(NCC2CCCO2)C(=O)N1CCc1ccccc1` (stereo not given), the results for the EC50 (in test [5]; in the test on H4; in test [6]) were 15.4 µM (active), 13.1 µM (active) and 12.9 µM (active), respectively.
In the case of `Cc1nc(N)sc1-c1ccccc1`, the IC50 in [4] was 71.9 µM (active).
Consider `Cc1noc(C)c1-c1cc(Nc2ccc(F)cc2)ncn1`, for which the results for the AC50 on Cytochrome P450 2C19 and at Cytochrome P450 3A4 were 39.8 µM (inconclusive) and 20 µM (inconclusive), respectively.
